Test results reported in patent US8916610B2, “Acid addition salt of a nortriptyline-GABA conjugate and a process of preparing same” (Ramot at Tel-Aviv University Ltd., priority 2010, dated 2014).
Read-outs that look alike come from different tables or passages of the source.

Tests used:
[1] = Description: Surface area data were collected using nitrogen absorption on a BET Micrometics Gemini V (11-point BET analysis) analyzer. The samples were outgassed at 25° C. under vacuum for at least 2 hours. SRM 1899 and SRM 1900 were used as the calibration standards.
[2] = remark: listed apart in the source
Text: Samples were submitted to Particle Technology Labs (PTL), Downers Grove, Ill., for bulk and tapped density analyses.

[3] = remark: listed apart in the source
Text: Particle size data was acquired using a Malvern Instruments MS2000 equipped with a Hydro2000μP dispersion unit. Data was collected and analyzed with Mastersizer 2000v.5.1 software, using volume based measurements. NIST traceable glass beads were used as the reference standard.
The final method conditions selected for determining the particle size of BL-1021 fumarate salts were as follows:
Dispersant: silicone oil;
Dispersant refractive index: 1.403;
The measurement of particle size of all lots was performed using the same method conditions (silicone oil as a dispersing medium, a pump speed of 1750 rpm).

[4] = batches after milling, listed as CC-2190.0-20.1
[5] = batches after milling, listed as CC-2190.0-21.1
[6] = batches after milling, listed as CC-2190.0-23.1
[7] = batches after milling, listed as CC-2562.0-01.1
[8] = batches before and after milling
[9] = silicone oil dispersing medium, pump speed 1750 rpm, volume based, text b315 speaks of μm

- BET surface area, Results ([1]; batch before milling): 6.58 m^2/g
- BET surface area, Results [1, 4]: 8.43 m^2/g
- BET surface area, Results [1, 5]: 10.84 m^2/g
- BET surface area, Results [1, 6]: 11.84 m^2/g
- BET surface area, Results [1, 7]: 7.45 m^2/g
- Bulk density ([2]; batch before milling): 0.29 g/mL
- Tapped density ([2]; batch before milling): 0.42 g/mL
- Bulk density [2, 4]: 0.22 g/mL
- Tapped density [2, 4]: 0.35 g/mL
- Bulk density [2, 5]: 0.18 g/mL
- Tapped density [2, 5]: 0.31 g/mL
- Bulk density [2, 6]: 0.25 g/mL
- Tapped density [2, 6]: 0.39 g/mL
- Bulk density [2, 7]: 0.19 g/mL
- Tapped density [2, 7]: 0.36 g/mL
- bulk density (range over batches) [2, 8]: 0.18-0.29 gram/ml
- tapped density (range over batches) [2, 8]: 0.31-0.42 gram/ml
- particle size distribution d10 [3, 9]: 7.0
- particle size distribution d50 [3, 9]: 93.9
- particle size distribution d90 [3, 9]: 220.8
- D90 (as stated in text, FIG. 6) ([3]; silicone oil, 1750 rpm): 200±25%
- particle size up to (upper end of bimodal distribution, FIG. 6) ([3]; silicone oil, 1750 rpm, fine tail below 1 μm): ≤ 400 μm
Structure (SMILES): CN(CCC=C1c2ccccc2CCc2ccccc21)C(=O)CCCN.O=C(O)/C=C/C(=O)O [BL-1021 fumarate salt, nortriptyline-4-aminobutyrate fumarate]
